From article PMC5934274 (Journal of medicinal chemistry, 2016)
Read-outs that look alike come from different tables or passages of the source.

Key:
PARP14 = PARP14 (Homo sapiens, UniProt Q460N5); experiment: In vitro ADP-ribosylation assay, PARP14; type: biochemical; settings: read-out: KM NAD+; PARP14 ART
PARP1 [1] = settings: read-out: KM NAD+ (literature), cited from earlier work
PARP2 = settings: read-out: KM NAD+ (literature); PARP2 FL row; cited from earlier work
PARP10 = molecular target: T1, PARP10 (Homo sapiens, UniProt Q53GL7); settings: read-out: KM NAD+ (literature); PARP10 FL row; cited from earlier work
T1 sequence (Q53GL7 1-1025): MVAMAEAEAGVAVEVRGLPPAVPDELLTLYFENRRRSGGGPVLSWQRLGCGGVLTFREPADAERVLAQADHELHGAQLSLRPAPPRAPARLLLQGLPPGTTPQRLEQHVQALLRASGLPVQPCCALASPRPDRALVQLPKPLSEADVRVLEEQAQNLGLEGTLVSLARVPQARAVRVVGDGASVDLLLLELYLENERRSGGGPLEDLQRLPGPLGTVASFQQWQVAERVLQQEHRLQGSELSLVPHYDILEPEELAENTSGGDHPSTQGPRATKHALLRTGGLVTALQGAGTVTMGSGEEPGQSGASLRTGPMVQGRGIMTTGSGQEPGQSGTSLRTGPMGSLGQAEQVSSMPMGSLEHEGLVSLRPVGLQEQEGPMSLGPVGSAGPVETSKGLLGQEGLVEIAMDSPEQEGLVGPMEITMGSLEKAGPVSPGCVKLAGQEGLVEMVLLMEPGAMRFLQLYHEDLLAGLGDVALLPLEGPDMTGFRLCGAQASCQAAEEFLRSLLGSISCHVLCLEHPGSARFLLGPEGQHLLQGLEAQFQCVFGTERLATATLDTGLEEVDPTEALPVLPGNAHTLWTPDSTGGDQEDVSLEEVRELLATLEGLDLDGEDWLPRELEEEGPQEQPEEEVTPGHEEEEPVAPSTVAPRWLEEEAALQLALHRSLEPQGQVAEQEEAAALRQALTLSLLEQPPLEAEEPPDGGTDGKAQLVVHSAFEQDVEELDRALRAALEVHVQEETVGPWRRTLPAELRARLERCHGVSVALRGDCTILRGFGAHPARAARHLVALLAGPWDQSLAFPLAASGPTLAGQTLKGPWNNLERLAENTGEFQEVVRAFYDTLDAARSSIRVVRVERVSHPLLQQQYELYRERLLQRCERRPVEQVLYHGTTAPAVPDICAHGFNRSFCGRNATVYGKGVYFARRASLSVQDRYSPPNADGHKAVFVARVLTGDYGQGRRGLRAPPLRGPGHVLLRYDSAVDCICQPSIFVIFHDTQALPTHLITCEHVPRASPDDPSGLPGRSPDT

PARP16 = molecular target: T2, PARP16 (Homo sapiens, UniProt Q8N5Y8); settings: read-out: KM NAD+ (literature); PARP16 FL row; cited from earlier work
T2 sequence (Q8N5Y8 1-322): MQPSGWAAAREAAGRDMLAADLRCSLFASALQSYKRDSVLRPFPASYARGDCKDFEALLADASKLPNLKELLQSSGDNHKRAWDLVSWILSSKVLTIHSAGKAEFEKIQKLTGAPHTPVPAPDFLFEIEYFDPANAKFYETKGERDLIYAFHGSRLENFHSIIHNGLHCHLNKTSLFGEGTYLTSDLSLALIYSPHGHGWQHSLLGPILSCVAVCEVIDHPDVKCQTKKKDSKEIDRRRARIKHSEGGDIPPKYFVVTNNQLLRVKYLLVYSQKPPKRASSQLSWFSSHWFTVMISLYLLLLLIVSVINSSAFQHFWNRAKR

PARP1 [2] = experiment: In vitro ADP-ribosylation assay, PARP1; type: biochemical, human; settings: selectivity toward PARP1 and -2 over other PARP family members

PARP14, sequence (Q460N5 whole entry): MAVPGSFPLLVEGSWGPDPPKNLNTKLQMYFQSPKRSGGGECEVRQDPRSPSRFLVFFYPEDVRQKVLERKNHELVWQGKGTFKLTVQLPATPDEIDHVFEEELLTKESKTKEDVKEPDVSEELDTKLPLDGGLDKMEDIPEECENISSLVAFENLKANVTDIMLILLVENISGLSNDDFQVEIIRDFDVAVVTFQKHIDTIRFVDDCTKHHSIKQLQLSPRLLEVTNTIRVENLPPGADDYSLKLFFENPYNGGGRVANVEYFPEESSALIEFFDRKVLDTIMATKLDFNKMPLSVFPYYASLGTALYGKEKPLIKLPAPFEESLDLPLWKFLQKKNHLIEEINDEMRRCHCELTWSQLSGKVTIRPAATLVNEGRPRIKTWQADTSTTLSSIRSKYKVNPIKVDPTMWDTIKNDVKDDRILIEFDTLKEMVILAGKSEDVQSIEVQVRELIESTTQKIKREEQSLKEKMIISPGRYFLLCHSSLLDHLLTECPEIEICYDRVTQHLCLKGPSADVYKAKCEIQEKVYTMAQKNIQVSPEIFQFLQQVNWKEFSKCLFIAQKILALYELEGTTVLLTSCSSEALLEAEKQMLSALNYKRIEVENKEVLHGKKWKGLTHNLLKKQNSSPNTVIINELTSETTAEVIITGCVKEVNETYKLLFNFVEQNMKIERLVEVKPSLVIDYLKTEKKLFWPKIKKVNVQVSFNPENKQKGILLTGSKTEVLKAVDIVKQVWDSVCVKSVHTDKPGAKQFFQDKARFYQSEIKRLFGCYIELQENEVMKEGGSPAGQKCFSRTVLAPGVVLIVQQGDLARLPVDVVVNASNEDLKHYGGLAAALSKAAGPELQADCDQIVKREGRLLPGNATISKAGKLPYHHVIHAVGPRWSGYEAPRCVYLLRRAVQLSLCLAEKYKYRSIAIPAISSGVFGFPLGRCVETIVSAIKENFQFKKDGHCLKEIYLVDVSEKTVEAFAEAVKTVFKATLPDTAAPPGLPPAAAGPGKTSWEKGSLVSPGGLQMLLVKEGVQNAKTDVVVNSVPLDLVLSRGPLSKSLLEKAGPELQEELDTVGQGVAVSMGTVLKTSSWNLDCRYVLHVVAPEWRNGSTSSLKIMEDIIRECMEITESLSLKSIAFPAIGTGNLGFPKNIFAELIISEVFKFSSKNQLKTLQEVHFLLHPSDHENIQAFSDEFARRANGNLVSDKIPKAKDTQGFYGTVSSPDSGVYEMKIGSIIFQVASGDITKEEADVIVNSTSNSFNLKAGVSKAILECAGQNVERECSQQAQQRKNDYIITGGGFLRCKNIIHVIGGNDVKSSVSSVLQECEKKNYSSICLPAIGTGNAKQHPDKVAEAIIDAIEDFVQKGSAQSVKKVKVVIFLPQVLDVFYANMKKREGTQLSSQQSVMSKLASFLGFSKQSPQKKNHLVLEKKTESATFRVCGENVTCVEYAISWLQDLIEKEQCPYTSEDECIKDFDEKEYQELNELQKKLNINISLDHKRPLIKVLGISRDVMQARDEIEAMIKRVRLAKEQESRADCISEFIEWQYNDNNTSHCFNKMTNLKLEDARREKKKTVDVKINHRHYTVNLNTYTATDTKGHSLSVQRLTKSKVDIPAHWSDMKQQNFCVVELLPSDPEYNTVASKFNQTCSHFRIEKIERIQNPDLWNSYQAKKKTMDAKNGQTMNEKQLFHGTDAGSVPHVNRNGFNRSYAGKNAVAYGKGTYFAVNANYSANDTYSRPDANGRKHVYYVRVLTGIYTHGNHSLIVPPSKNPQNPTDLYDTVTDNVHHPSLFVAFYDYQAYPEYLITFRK

Km (PARP14) [µM]	IC50 values for PARP1 and -2 lower than those for other family members (PARP1 [2]) [fold]	SMILES	Km (PARP1 [1]; PARP1 ART row) [µM]	Km (PARP1 [1]; PARP1 FL row) [µM]	Km (PARP2) [µM]	Km (PARP10) [µM]	Km (PARP16) [µM]
62 ± 7		NC(=O)c1ccc[n+]([C@@H]2O[C@H](COP(=O)([O-])OP(=O)(O)OC[C@H]3O[C@@H](n4cnc5c(N)ncnc54)[C@H](O)[C@@H]3O)[C@@H](O)[C@H]2O)c1 [NAD+, nicotinamide adenine dinucleotide]	30 to 130	50	130	50	280
	> 100	C[C@]1(c2nc3c(C(N)=O)cccc3[nH]2)CCCN1 [Veliparib]					
